In data set [1] the test system is cells devoid of insulin-like growth factor-1 receptors. The experiment in a line: Cell death in cells devoid of IGF-1R. In kind it is cell-based.
In data set [2] the test system is PC-3 prostate cancer cells. The experiment in a line: Cell viability (XTT), PC-3. The data set is classed as cell-based. The note with it: Homo sapiens, 48 h. How it is done:
(§1) Cell proliferation kit II (Roche Inc.) is based on calorimetric change of the yellow tetrazolium salt XTT in orange formazan dye by the respiratory chain of viable cells (Roehm, N W, et al., J Immunol Methods 142:257-265, 1991). Cells seeded at a concentration of 5000/well in 100 μl medium in a 96-well plate were treated with different drugs in the given concentration. After 24 or 48 h the cells were incubated, according to the manufacturer's protocol, with XTT labelling mixture. After 4 h the formazan dye is quantified using a scanning multiwell spectrophotometer with a 495-nm filter. The absorbance is directly correlated with number of viable cells. The standard absorbance curve was drawn by means of untreated cells seeded at a concentration of from 1000 to 10 000 cells/well with an increasing rate of 1000 cells/well. All standards and experiments were performed in triplicates.
(§2) 5 different types of cell lines were seeded in 96-well plates (medium volume in a well was 100 μl), at a concentration of 10,000 cells/cm^2 in Minimal Essential Medium supplemented with fetal calf serum. When the cells had reached a concentration of 65,000 cells/cm^2, they were treated with different doses of podophyllotoxin and deoxypodophyllotoxin for 48 h. Cell viability was then assayed (see above). […]

The target of data set [3] is IGF-1R (Homo sapiens, UniProt P08069). The experiment in a line: IGF-1R phosphorylation/autophosphorylation in intact FM55 melanoma cells (immunoprecipitation, Western blotting, OD). The data set is classed as cell-based. More on the design: The cells were then isolated and subjected to immuno-precipitation of the IGF-1R; endogenous in cells; host or cells: FM55 melanoma cells. The note with it: for Level of IGF-1R phosphorylation in intact cells: OD, control cells = 100%. The procedure:
The isolated cells were lyzed in 10 ml ice-cold PBSTDS containing protease inhibitors (Carlberg, M., et al., J Biol Chem 271:17453-17462, 1996). 50 μl protein A or G agarose was added in 1 ml sample and incubated for 15 min at 4° C. on an orbital shaker. After centrifugation for 10 min at 10,000 r/min at 4° C. the supernatant was saved. The protein content was determined by a dye-binding assay with a reagent purchased from Bio-Rad. Bovine serum albumin was used as a standard. 15 μl Protein G Plus agarose and 5 μl anti-IGF-1R were added. After a 3 h incubation at 4° C. on an orbital shaker the precipitate was collected by pulse centrifugation in a micro centrifuge at 14,000×g for 10 s. The supernatant was discarded and the pellet was washed 3 times with PBSTDS.
Protein samples were solved in a 2×-sample buffer containing Laemmli buffer and 0.5% […] and boiled for 5 min at 96° C. Samples were separated by SDS-PAGE with a 4% stacking gel and 7.5% separation gel. Molecular weight markers (Bio Rad, Sweden) were run simultaneously in all experiments.
Following SDS-PAGE the proteins were transferred overnight to nitro-cellulose membranes (Hybond, Amersham, UK) and then blocked for 1 h at room temperature in a solution of 4% skimmed milk powder and 0.02% Tween 20 in PBS, pH 7.5. Incubations with the primary antibodies were performed for 1 h at room temperature, followed by 3 washes with PBS with Tween and incubation with the second antibody for 1 h room temperature. After another 3 washes the membranes were incubated with Streptavidin-labelled horseradish peroxidase for 30 min and then detected using Amersham ECL system (Amersham, UK) The films were scanned by Fluor-S (BioRad).
Melanoma cells (line FM55) were seeded in 6-cm dishes, at a concentration of 10,000 cells/cm^2 in Minimal Essential Medium supplemented with 10% fetal calf serum (FCS). […] Treatment with 0 μM represents untreated controls. The cells were then isolated and subjected to immuno-precipitation of the IGF-1R. The immunoprecipitates, containing purified IGF-1R, were fractionated by gel electrophoresis. Phosphorylation of IGF-1R was detected by an anti-phosphotyrosine antibody using Western blotting. The obtained signals represent phosphorylated IGF-1R and the intensity of signals represents amounts of phosphorylated IGF-1R. Details of the methods used are described above. The intensities are quantified by a scanner, which measures the optical density (OD) of the signals. For the control cells the OD is set at 100%. The blank (OD 0%) represents the background. The results given in Table 1 below are mean values of 3 experiments.
FM 55 melanoma cells were cultured in the same way as described in Experiment 1. When reaching a density of 65,000 cells/cm^2 in the dishes, they were treated for 1 h with 0.05 μM podophyllotoxin, deoxypodophyllotoxin, acetylpodophyllotoxin, epipodophyllotoxin, 4′-demethyl-podophyllotoxin and podophyllotoxone. The cells were then harvested for assay and quantification of IGF-1R autophosphorylation as described above. The values shown in Table 2 represent means of 3 experiments.

The subject of data set [4] is K562/Vcr30 chronic myeloid leukemia cells (cytostatic-resistant). The experiment in a line: Viability of leukemia cells, K562/Vcr30. The data set is classed as cell-based, human. The note with it: Homo sapiens; K562/Vcr30, 72 h; read-out: IC50 for viability of leukemia cell lines. The procedure:
The human chronic myeloid leukemia K562/S and K562/Vcr30 lines and the acute myeloid leukemia cell lines HL60/0 and HL60/Nov were obtained from ATCC. The K562/S and HL60/0 are wild type (non-resistant) cells, whereas K562/Vcr30 and HL60/Nov are cytostatic-resistant sublines. All leukemia cell lines were cultured in RPMI 1640 medium supplemented with 10% fetal bovine serum and with 2 mM glutamine, 1% benzyl-penicillin and streptomycin. The cells were grown in tissue culture flasks maintained at 95% air/5% CO2 atmosphere at 37° C. in a humidified incubator. For the experiments 25,000 cells were cultured in 60-mm plastic dishes or 96-well plastic plates. The experiments on leukemia cells were performed in collaboration with Associate professor Sigurd Vitols, Department of Pharmacology, Karolinska Hospital (Stockholm, Sweden).
as §1
The leukemia cell lines K562/S, K562/Vcr 30, HL60/0 and HL60/Nov were proven to express the IGF-1R. This was assayed by Western blotting analysis, as described in Methods and Experiment 1 and 2. The 4 leukemia cell lines were seeded in 96-well plates (medium volume in a well was 100 μl), in RPMI40 medium supplemented with fetal calf serum. After 24 h podophyllotoxin, deoxypodophyllotoxin and other derivatives were added at different concentrations for 72 h. Cell viability was then assayed (see above). IC50 values for each inhibitor and cell lines are shown below (Table 5). The results are based on 3 different experiments.

Data set [5] concerns receptor of platelet-derived growth factor. Kind of data set: Tyrosine phosphorylation of platelet-derived growth factor receptor. The data set is classed as cell-based.
Data set [6] concerns BE melanoma cells. The experiment in a line: Cell viability (XTT), BE. Particulars: Homo sapiens, 48 h. In kind it is cell-based. The procedure: as §1, §2
Data set [7] can be described thus: Water solubility. In kind it is physicochemical.

Sequence of IGF-1R (P08069 31-1367): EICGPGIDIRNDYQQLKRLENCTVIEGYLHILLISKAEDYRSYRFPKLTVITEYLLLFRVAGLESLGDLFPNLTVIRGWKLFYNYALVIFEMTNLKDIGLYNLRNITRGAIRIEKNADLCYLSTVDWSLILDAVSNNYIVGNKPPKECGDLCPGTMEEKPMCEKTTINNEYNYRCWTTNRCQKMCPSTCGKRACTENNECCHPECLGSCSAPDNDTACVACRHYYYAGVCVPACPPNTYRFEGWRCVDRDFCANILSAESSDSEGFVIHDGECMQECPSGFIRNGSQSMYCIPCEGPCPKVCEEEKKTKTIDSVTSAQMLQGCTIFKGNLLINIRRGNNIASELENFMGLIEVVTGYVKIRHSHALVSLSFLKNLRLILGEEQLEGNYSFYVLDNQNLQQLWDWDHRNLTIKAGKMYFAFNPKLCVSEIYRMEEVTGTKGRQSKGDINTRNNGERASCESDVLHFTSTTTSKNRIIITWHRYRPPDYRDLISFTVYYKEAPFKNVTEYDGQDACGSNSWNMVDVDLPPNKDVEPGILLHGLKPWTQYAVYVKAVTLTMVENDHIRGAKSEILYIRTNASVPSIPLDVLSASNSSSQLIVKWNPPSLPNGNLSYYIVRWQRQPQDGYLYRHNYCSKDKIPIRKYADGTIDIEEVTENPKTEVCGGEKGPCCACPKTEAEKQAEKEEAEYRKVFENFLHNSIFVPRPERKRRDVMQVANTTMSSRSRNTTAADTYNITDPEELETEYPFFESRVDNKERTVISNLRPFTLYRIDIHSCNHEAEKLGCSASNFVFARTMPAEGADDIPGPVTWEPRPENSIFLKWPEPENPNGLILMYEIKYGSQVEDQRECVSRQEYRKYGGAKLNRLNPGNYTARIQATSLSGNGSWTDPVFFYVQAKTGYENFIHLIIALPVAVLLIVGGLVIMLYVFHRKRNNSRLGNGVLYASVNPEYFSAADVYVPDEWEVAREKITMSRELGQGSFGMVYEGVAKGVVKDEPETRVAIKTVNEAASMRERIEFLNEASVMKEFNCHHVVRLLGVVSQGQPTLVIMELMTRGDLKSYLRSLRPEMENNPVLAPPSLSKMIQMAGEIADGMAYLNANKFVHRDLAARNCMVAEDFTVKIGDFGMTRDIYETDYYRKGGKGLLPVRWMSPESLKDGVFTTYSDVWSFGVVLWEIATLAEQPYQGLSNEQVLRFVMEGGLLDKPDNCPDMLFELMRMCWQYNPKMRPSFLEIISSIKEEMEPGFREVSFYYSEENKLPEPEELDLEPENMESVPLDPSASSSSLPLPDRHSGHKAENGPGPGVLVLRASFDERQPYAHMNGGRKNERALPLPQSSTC

`COc1cc([C@@H]2c3cc4c(cc3[C@H](O)[C@H]3COC(=O)[C@H]23)OCO4)cc(OC)c1OC` [Podophyllotoxin, podophyllotoxin]: the “response of cells devoid of IGF-1R (in words)” value in data set [1] is on record as “resistant”. Besides, the IC50 came to 60 nM in data set [2], 7 nM in data set [4] and 50 nM in data set [6]. Further, the “inhibition of IGF-1R phosphorylation (in words)” value in data set [3] (FM55 cells, 0.05 μM, 1 h) is given as “potent inhibitors”. For the same molecule, the “Inhibitory effect on IGF-1R autophosphorylation in intact cells in relation to podophyllotoxin, Relative potency” value in data set [3] (FM55 cells, 0.05 μM, 1 h, podophyllotoxin = 1, mean of 3) came out at 1. Further, the “Level of IGF-1R phosphorylation in intact cells” value in data set [3] (FM55 cells, 1 μM, 1 h, mean of 3) is listed as 8%; in data set [3] (FM55 cells, 15 μM, 1 h, mean of 3), 4%; in data set [3] (FM55 cells, 60 μM, 1 h, mean of 3), 2%. In data set [3] (FM55 cells, 1, 15, 60 μM, genistein statement at 60 μM), the “effect on IGF-1R phosphorylation (in words)” value was “almost completely blocks”. The “concentration sufficient to inactivate the IGF-1R, fold lower than for the anti-microtubule effect” value in data set [3] (compared to anti-microtubule effect) was determined as 100 fold. In data set [5], the “interference with tyrosine phosphorylation of the receptor of platelet-derived growth factor” value is on record as “Neither do they interfere”. Besides, in data set [7], the water solubility is 100 to 200 µM.
